In US7109193B2, “Tricyclic diazepines tocolytic oxytocin receptor antagonists” (Wyeth, priority 2001, dated 2006):

Target: T1, human vasopressin V2 receptor subtype (Homo sapiens, UniProt P30518)
T1 construct: host or cells: CHO cells (pZeoSV vector)
Assay: Vasopressin binding in Chinese Hamster Ovary cell membranes expressing human vasopressin V2 subtype receptors
Conditions: 100 nM, CHO cell membranes, [3H]arginine vasopressin, values without parentheses
How it was run: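 Radioligand displacement on membranes from CHO cells stably expressing human V2 receptor, 25 to 50 μg protein/well, in 50 mM Tris-HCl pH 7.4 with MgCl2, BSA and protease inhibitors. [^3H]arginine vasopressin (8 nM working solution) incubated 60 min at room temperature; bound label measured by filtration and scintillation counting.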

T1 sequence (P30518 whole entry): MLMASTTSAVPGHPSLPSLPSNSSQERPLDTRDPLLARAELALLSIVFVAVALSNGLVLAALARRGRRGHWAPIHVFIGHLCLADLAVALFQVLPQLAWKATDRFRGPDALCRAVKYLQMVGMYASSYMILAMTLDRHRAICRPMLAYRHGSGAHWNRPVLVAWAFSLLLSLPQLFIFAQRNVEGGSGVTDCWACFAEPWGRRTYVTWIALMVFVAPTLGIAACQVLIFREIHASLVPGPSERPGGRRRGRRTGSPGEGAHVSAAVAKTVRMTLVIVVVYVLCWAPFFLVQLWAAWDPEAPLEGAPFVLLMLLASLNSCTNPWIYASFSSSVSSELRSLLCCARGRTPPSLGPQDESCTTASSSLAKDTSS

inhibition at 0.1 µM [%]	V2 % inhibition @ 100 nM (0.1 µM) [%]	Structure (SMILES)
84	–	COc1cc(C(=O)N2Cc3cccn3Cc3ccccc32)ccc1-c1ccccc1C(F)(F)F [Example 19D, (10,11-Dihydro-5H-pyrrolo[2,1-c][1,4]benzodiazepin-10-yl)-(2-methoxy-2′-trifluoromethyl-[1,1′-biphenyl]-4-yl)-methanone]
27	–	COc1ccccc1-c1ccc(C(=O)N2Cc3ccc(C(=O)N4CCN(C)CC4)n3Cc3ccccc32)cc1C [Example 49, {10-[(2′-Methoxy-2-methyl[1,1′-biphenyl]-4-yl)carbonyl]-10,11-dihydro-5H-pyrrolo[2,1-c][1,4]benzodiazepin-3-yl}(4-methyl-1-piperazinyl)methanone]
19	–	COc1cc(-c2ccccc2C)c(Cl)cc1C(=O)N1Cc2ccc(C(=O)N[C@@H](CCCCNC(=O)OC(C)(C)C)C(N)=O)n2Cc2ccccc21 [Example 304, tert-Butyl (5S)-6-amino-5-[({10-[(6-chloro-3-methoxy-2′-methyl[1,1′-biphenyl]-4-yl)carbonyl]-10,11-dihydro-5H-pyrrolo[2,1-c][1,4]benzodiazepin-3-yl}carbonyl)amino]-6-oxohexylcarbamate]
17	–	C=CCN1CCN(C(=O)c2ccc3n2Cc2ccccc2N(C(=O)c2ccc(-n4c(C)ccc4C)c(OC)c2)C3)CC1 [Example 318, (4-Allyl-1-piperazinyl){10-[4-(2,5-dimethyl-1H-pyrrol-1-yl)-3-methoxybenzoyl]-10,11-dihydro-5H-pyrrolo[2,1-c][1,4]benzodiazepin-3-yl}methanone]
–	16	Cc1cc(C(=O)N2Cc3ccc(C(=O)N4CCN(CCCN(C)C)CC4)n3Cc3ccccc32)ccc1-c1ccccc1C(F)(F)F [Example 257, {10-[(2-Methyl-2′-trifluoromethyl-[1,1′-biphenyl]-4-yl)carbonyl]-10,11-dihydro-5H-pyrrolo[2,1-c][1,4]benzodiazepin-3-yl}{4-[3-(dimethylamino)propyl]-1-piperazinyl}-methanone]
17	–	COc1cccc(-c2ccc(C(=O)N3Cc4ccc(C(=O)N5CCN(C)CC5)n4Cc4ccccc43)cc2C)c1 [Example 51, {10-[(3′-Methoxy-2-methyl[1,1′-biphenyl]-4-yl)carbonyl]-10,11-dihydro-5H-pyrrolo[2,1-c][1,4]benzodiazepin-3-yl}(4-methyl-1-piperazinyl)methanone]
21	–	Cc1ccccc1-c1ccc(C(=O)N2Cc3ccc(C(=O)NCCCN(C)C)n3Cc3ccccc32)cc1C [Example 73, N-[3-(Dimethylamino)propyl]-10-[(2,2′-dimethyl[1,1′-biphenyl]-4-yl)carbonyl]-10,11-dihydro-5H-pyrrolo[2,1-c][1,4]benzodiazepine-3-carboxamide]
-2	–	COc1cc(C(=O)N2Cc3ccc(C(=O)N4CCN(CCN(C)C)CC4)n3Cc3ccccc32)ccc1-n1c(C)ccc1C [Example 316, {4-[2-(Dimethylamino)ethyl]-1-piperazinyl}{10-[4-(2,5-dimethyl-1H-pyrrol-1-yl)-3-methoxybenzoyl]-10,11-dihydro-5H-pyrrolo[2,1-c][1,4]benzodiazepin-3-yl}methanone]
26	–	COc1cccc(-c2cc(OC)c(C(=O)N3Cc4ccc(C(=O)N[C@@H](Cc5c[nH]cn5)C(N)=O)n4Cc4ccccc43)cc2Cl)c1 [Example 287, N-[(1S)-2-Amino-1-(1H-imidazol-4-ylmethyl)-2-oxoethyl]-10-[(6-chloro-3,3′-dimethoxy[1,1′-biphenyl]-4-yl)carbonyl]-10,11-dihydro-5H-pyrrolo[2,1-c][1,4]benzodiazepine-3-carboxamide]

More lines, now with the values behind:

Structure (SMILES)	inhibition at 0.1 µM [%]	V2 % inhibition @ 100 nM (0.1 µM) [%]
COc1ccccc1-c1ccc(C(=O)N2Cc3ccc(C(=O)N[C@H]4CN5CCC4CC5)n3Cc3ccccc32)cc1 [Example 296, N-[(3R)-1-Azabicyclo[2.2.2]oct-3-yl]-10-[(2′-methoxy[1,1′-biphenyl]-4-yl)carbonyl]-10,11-dihydro-5H-pyrrolo[2,1-c][1,4]benzodiazepine-3-carboxamide]	24	–
COc1ccccc1-c1ccc(C(=O)N2Cc3ccc(C(=O)N[C@@H](Cc4c[nH]cn4)C(N)=O)n3Cc3ccccc32)cc1C [Example 288, N-[(1S)-2-Amino-1-(1H-imidazol-4-ylmethyl)-2-oxoethyl]-10-[(2′-methoxy-2-methyl[1,1′-biphenyl]4-yl)carbonyl]-10,11-dihydro-5H-pyrrolo[2,1-c][1,4]benzodiazepine-3-carboxamide]	32	–
COc1cc(-c2ccccc2C)c(Cl)cc1C(=O)N1Cc2ccc(C(=O)N[C@@H]3CN4CCC3CC4)n2Cc2ccccc21 [Example 297, N-[(3S)-1-Azabicyclo[2.2.2]oct-3-yl]-10-[(6-chloro-3-methoxy-2′-methyl-[1,1′-biphenyl]-4-yl)carbonyl]-10,11-dihydro-5H-pyrrolo[2,1-c][1,4]benzodiazepine-3-carboxamide]	13	–
Cc1cc(C(=O)N2Cc3ccc(C(=O)N[C@@H](Cc4c[nH]cn4)C(N)=O)n3Cc3ccccc32)ccc1-c1ccccc1C(F)(F)F [Example 284, N-[(1S)-2-Amino-1-(1H-imidazol-4-ylmethyl)-2-oxoethyl]-10-{[2-methyl-2′-(trifluoromethyl)[1,1′-biphenyl]-4-yl]carbonyl}-10,11-dihydro-5H-pyrrolo[2,1-c][1,4]benzodiazepine-3-carboxamide]	12	–
O=C(c1ccc(-c2ccccc2)nc1)N1Cc2cccn2Cc2ccccc21 [Example 29, (6-Phenyl-pyridin-3-yl)-[10,11-dihydro-5H-pyrrolo[2,1-c][1,4]benzodiazepin-10-yl]methanone]	24	–
COc1cc(C(=O)N2Cc3ccc(C(=O)N4CCN(CCCN(C)C)CC4)n3Cc3ccccc32)ccc1-c1cccc2ccccc12 [Example 253, {4-[3-(Dimethylamino)propyl]-1-piperazinyl}{10-[3-methoxy-4-(1-naphthyl)benzoyl]-10,11-dihydro-5H-pyrrolo[2,1-c][1,4]benzodiazepin-3-yl}methanone]	-10	–
COc1cccc(-c2ccc(C(=O)N3Cc4ccc(C(=O)N5CCN(CCCN(C)C)CC5)n4Cc4ccccc43)cc2C)c1 [Example 248, {4-[3-(Dimethylamino)propyl]-1-piperazinyl}{10-[(3′-methoxy-2-methyl[1,1′-biphenyl]-4-yl)carbonyl]-10,11-dihydro-5H-pyrrolo[2,1-c][1,4]benzodiazepin-3-yl}methanone]	7	–
Cc1ccccc1-c1ccc(C(=O)N2Cc3ccc(C(=O)N4CCCN(C)CC4)n3Cc3ccccc32)cc1C [Example 63, {10-[(2,2′-Dimethyl[1,1′-biphenyl]-4-yl)carbonyl]-10,11-dihydro-5H-pyrrolo[2,1-c][1,4]benzodiazepin-3-yl}(4-methyl-1,4-diazepan-1-yl)methanone]	9	–
COc1cccc(-c2cc(OC)c(C(=O)N3Cc4ccc(C(=O)N[C@@H](CCCCNC(=O)OC(C)(C)C)C(N)=O)n4Cc4ccccc43)cc2Cl)c1 [Example 302, tert-Butyl (5S)-6-amino-5-[({10-[(6-chloro-3,3′-dimethoxy[1,1′-biphenyl]-4-yl)carbonyl]-10,11-dihydro-5H-pyrrolo[2,1-c][1,4]benzodiazepin-3-yl}carbonyl)amino]-6-oxohexylcarbamate]	17	–
COc1cc(C(=O)N2Cc3ccc(C(=O)N4CCN(CCCN(C)C)CC4)n3Cc3ccccc32)ccc1-n1c(C)ccc1C [Example 320, {4-[3-(Dimethylamino)propyl]-1-piperazinyl}{10-[4-(2,5-dimethyl-1H-pyrrol-1-yl)-3-methoxybenzoyl]-10,11-dihydro-5H-pyrrolo[2,1-c][1,4]benzodiazepin-3-yl}methanone]	21	–
COc1cc(C(=O)N2Cc3ccc(C(=O)N4CCN(C)CC4)n3Cc3ccccc32)ccc1-c1cccc2ccccc12 [Example 55, {10-[3-Methoxy-4-(1-naphthyl)benzoyl]-10,11-dihydro-5H-pyrrolo[2,1-c][1,4]benzodiazepin-3-yl}(4-methyl-1-piperazinyl)methanone]	30	–
COc1ccccc1-c1ccc(C(=O)N2Cc3ccc(C(=O)N[C@@H]4CN5CCC4CC5)n3Cc3ccccc32)cc1C [Example 295, N-[(3S)-1-Azabicyclo[2.2.2]oct-3-yl]-10-[(2′-methoxy-2-methyl[1,1′-biphenyl]-4-yl)carbonyl]-10,11-dihydro-5H-pyrrolo[2,1-c][1,4]benzodiazepine-3-carboxamide]	22	–
COc1cccc(-c2ccc(C(=O)N3Cc4ccc(C(=O)N5CCCN(C)CC5)n4Cc4ccccc43)cc2C)c1 [Example 64, {10-[(3′-Methoxy-2-methyl[1,1′-biphenyl]-4-yl)carbonyl]-10,11-dihydro-5H-pyrrolo[2,1-c][1,4]benzodiazepin-3-yl}(4-methyl-1,4-diazepan-1-yl)methanone]	19	–
COc1ccccc1-c1ccc(C(=O)N2Cc3ccc(C(=O)N4CCCN(C)CC4)n3Cc3ccccc32)cc1C [Example 62, {10-[(2′-Methoxy-2-methyl[1,1′-biphenyl]-4-yl)carbonyl]-10,11-dihydro-5H-pyrrolo[2,1-c][1,4]benzodiazepin-3-yl}(4-methyl-1,4-diazepan-1-yl)methanone]	27	–
COc1ccccc1-c1ccc(C(=O)N2Cc3ccc(C(=O)N[C@H]4CN5CCC4CC5)n3Cc3ccccc32)cc1OC [Example 299, N-[(3R)-1-Azabicyclo[2.2.2]oct-3-yl]-10-[(2,2′-dimethoxy[1,1′-biphenyl]-4-yl)carbonyl]-10,11-dihydro-5H-pyrrolo[2,1-c][1,4]benzodiazepine-3-carboxamide]	22	–
Cc1ccccc1-c1ccc(C(=O)N2Cc3ccc(C(=O)N4CCN(C)CC4)n3Cc3ccccc32)cc1C [Example 50, {10-[(2,2′-Dimethyl[1,1′-biphenyl]-4-yl)carbonyl]-10,11-dihydro-5H-pyrrolo[2,1-c][1,4]benzodiazepin-3-yl}(4-methyl-1-piperazinyl)methanone]	15	–
